Measurements as given in patent US8822439B2, “Glucocorticoid receptor agonists” (Pfizer Inc., priority 2007, dated 2014).
pIC50: −log10 of the molar value.

Legend:
[1] = system: LPS-induced lung neutrophils; test: Inhibition of LPS-induced lung neutrophilia in rats after intratracheal dosing; assay type: in vivo; conditions: male CD Sprague-Dawley rats; single intratracheal dose 4 hours before nebulised LPS; BAL 4 hours after LPS
Protocol: The pharmacological activity may be assessed in in vivo models of lung inflammation such as the one described below. The primary objective of this procedure was to determine the anti-inflammatory activity of the compounds of formula (I), when administered directly into the lungs via the trachea.
Test compounds were dissolved, or prepared as fine suspensions, in phosphate buffered saline containing 0.5% (w/v) Tween-80 to provide a range of dose levels. Male CD Sprague-Dawley rats (300-450 g) were randomised to study groups of n=6 and then briefly anaesthetised in an anaesthetic chamber with 5% Isoflurane in 3 l/min O2. One of the test compound formulations or dose vehicle (100 μl) was injected directly into the trachea of each anaesthetised rat using a Hamilton syringe. The animals were then allowed to recover from the anaesthetic. Dependent on the study design, animals received either a single dose of compound or were treated once daily on 4 successive days. Four hours after the dosing (or 4 hours after the final dose in repeat dose studies) the rats were placed into a chamber (300×300×450 mm), connected to an ultrasonic nebuliser and a small animal rodent ventilator set to the maximum tidal volume and rate (5 ml, 160 strokes/min). 10 ml of 1 mg/ml LPS (Sigma-Aldrich, L2630) dissolved in saline, pre-warmed to 37° C., was nebulised into the chamber. After 15 minutes the ventilator and nebuliser were turned off and the animals remained in the chamber to breathe the mist for a further 15 minutes before being returned to the home cage.
Four hours after the end of the LPS treatment the animals were terminally anaesthetised with 1 ml/kg Pentoject IP. The trachea was cannulated and the lungs lavaged with 4×2.5 ml PBS containing 2.6 mM EDTA and the lavage fluid collected. 1 ml bronchioalveolar lavage (BAL) was added to 125 μl of 40% bovine serum albumen (BSA) and the cellular count determined using an Advia 120 haematology system (Siemens). In repeat dose studies, bodyweights and weights of adrenal glands and thymus were also determined as these are known to decrease in response to glucocorticoid agonist exposure and have been used to assess the systemic effects of glucocorticoid agonists. In some repeat dose experiments, a terminal blood sample was collected from each rat, serum and plasma prepared, and concentrations of corticosterone in serum and ACTH in plasma were determined as additional markers of systemic glucocorticoid agonist effect. In some studies a known glucocorticoid agonist, fluticasone propionate, was administered to separate groups of rats as a positive control.
Separate dose response curves were constructed, for inhibition of LPS-induced lung neutrophils, and each marker of glucocorticoid agonist systemic effect. Half maximal effect doses (ED50) values were estimated from the fitted curves. The ED50 values for effect on systemic markers of glucocorticoid agonist activity were also divided by the ED50 for inhibition of lung neutrophilia in order to determine values for therapeutic index (TI).

[2] = system: TNF-α release from LPS stimulated isolated human peripheral mononuclear cells (PBMC); test: Inhibition of TNF-α release from LPS stimulated isolated human PBMC; assay type: cell-based; conditions: 1 h preincubation, 18 hours after LPS, ELISA
Protocol: (§1) The anti-inflammatory activity of the compounds against human leukocytes in vitro was also evaluated by determining inhibition of tumour necrosis factor-α (TNF-α) release from lipopolysaccharide (LPS) stimulated human whole blood (WB) and isolated human peripheral mononuclear cells (PBMC).
(§2) Peripheral venous blood from healthy, non-medicated donors was collected using ethylenediaminetetraacetic acid (EDTA) as the anti-coagulant. For PBMC preparation, samples of blood were diluted 1:1 with sterile phosphate buffered saline and then separated using ACCUSPIN™ System-Histopaque®-1077 tubes (Sigma-Aldrich, St Louis, Mo.), centrifuged at 400 g for 35 minutes. Buffy coat cells were removed into PBS, centrifuged at 200 g for 10 minutes and re-suspended in PBMC assay buffer (Hanks Balanced Salt Solution, 0.28% [w/v] 4-[2-hydroxyethyl]-1-piperazineethanesulfonic acid [HEPES], 0.01% [w/v] low-endotoxin bovine serum albumin [BSA]. A differential white cell count was performed and PBMC's diluted to 1×10^6 lymphocytes per ml in PBMC assay buffer.
(§3) Test compounds were dissolved in DMSO and diluted in PBMC assay buffer (final DMSO concentration 1%) to cover an appropriate concentration range, e.g 0.001 nM to 10000 nM. Samples of test compound solution or vehicle (20 μl) were added into 96-well tissue culture treated plates (Corning) and PBMC (160 μl) or WB (160 μl) added to each well. The assay mixtures were incubated at 37° C. for 1 h in a humidified incubator containing an atmosphere of air supplemented with 5% CO2 before adding LPS (20 μl of 100 ng/ml for PBMC or 1 μg/ml for WB). Plates were returned to the incubator for a further 18 hours, and then centrifuged before recovery of samples of supernatant. TNF-α in the samples was determined using an enzyme-linked immunosorbent assay (ELISA) (Invitrogen kit no CHC-1754; Invitrogen Carlsbad, Calif.) and following the manufacturers instructions. Dose response curves were constructed from which IC50 values were calculated.

[3] = system: TNF-α release from LPS stimulated human whole blood (WB); test: Inhibition of TNF-α release from LPS stimulated human whole blood; assay type: cell-based; conditions: 1 h preincubation, 18 hours after LPS, ELISA
Protocol: as §1, §2, §3

SMILES | ED50 for inhibition of lung neutrophilia [1] | pIC50 [2] | pIC50 [3]
C[C@]12C=CC(=O)C=C1[C@@H](F)C[C@H]1[C@@H]3C[C@H]4O[C@@H](c5ccc(Cc6ccccc6)cc5)O[C@@]4(C(=O)CO)[C@@]3(C)C[C@H](O)[C@@]12F [Example 1, (4aS,4bR,5S,6aS,6bS,8R,9aR,10aS,10bS,12S)-8-(4-Benzylphenyl)-4b,12-difluoro-6b-glycoloyl-5-hydroxy-4a,6a-dimethyl-4a,4b,5,6,6a,6b,9a,10,10a,10b,11,12-dodecahydro-2H-naphtho[2′,1′:4,5]indeno[1,2-d][1,3]dioxol-2-one] | 0.27 µg | 10.01 | 7.77
CSc1cccc(Sc2ccc([C@@H]3O[C@@H]4C[C@H]5[C@@H]6C[C@H](F)C7=CC(=O)C=C[C@]7(C)[C@@]6(F)[C@@H](O)C[C@]5(C)[C@]4(C(=O)CO)O3)cc2)c1 [Example 2, (4aS,4bR,5S,6aS,6bS,8R,9aR,10aS,10bS,12S)-4b,12-difluoro-6b-glycoloyl-5-hydroxy-4a 0.6a-dimethyl-8-(4-{[3-(methylthio)phenyl]thio}phenyl)-4a,4b,5,6,6a,6b,9a,10,10a,10b,11.,12-dodecahydro-2H-naphtho[2′,1′:4,5]indeno[1,2-d][1,3]dioxol-2-one] | 0.18 µg | 10.04 | 7.31
C[C@]12C=CC(=O)C=C1[C@@H](F)C[C@H]1[C@@H]3C[C@H]4O[C@@H](c5ccc(CSc6ccc(O)cc6)cc5)O[C@@]4(C(=O)CO)[C@@]3(C)C[C@H](O)[C@@]12F [Example 3, (4aS,4bR,5S,6aS,6bS,8R,9aR,10aS,10bS,12S)-4b,12-Difluoro-6b-glycoloyl-5-hydroxy-8-(4-{[(4-hydroxyphenyl)thio]methyl}phenyl)-4a 0.6a-dimethyl-4a,4b,5,6,6a,6b,9a,10,10a,10b,11,12-dodecahydro-2H-naphtho[2′,1′:4,5]indeno[1,2-d][1,3]dioxol-2-one] | 0.45 µg | 10.21 | 7.62
C[S+]([O-])c1cccc(Sc2ccc([C@@H]3O[C@@H]4C[C@H]5[C@@H]6C[C@H](F)C7=CC(=O)C=C[C@]7(C)[C@@]6(F)[C@@H](O)C[C@]5(C)[C@]4(C(=O)CO)O3)cc2)c1 (stereo partly drawn) [Example 4, (4aS,4bR,5S,6aS,6bS,8R,9aR,10aS,10bS,12S)-4b,12-difluoro-6b-glycoloyl-5-hydroxy-4a,6a-dimethyl-8-(4-{[3-(methylsulfinyl)phenyl]thio}phenyl)-4a,4b,5,6,6a,6b,9a,10,10a,10b,11,12-dodecahydro-2H-naphtho[2′,1′:4.5]indeno[1,2-d][1,3]dioxol-2-one] | 2.00 µg | 10.23 | 7.40
C[C@]12C=CC(=O)C=C1[C@@H](F)C[C@H]1[C@@H]3C[C@H]4O[C@@H](c5ccc(CSc6ccc(O)c(Cl)c6)cc5)O[C@@]4(C(=O)CO)[C@@]3(C)C[C@H](O)[C@@]12F [Example 5, (4aS,4bR,5S,6aS,6bS,8R,9aR,10aS,10bS,12S)-8-(4-{[(3-chloro-4-hydroxyphenyl)thio]methyl}phenyl)-4-b,12-difluoro-6b-glycoloyl-5-hydroxy-4a,6a-dimethyl-4a,4b,5,6,6a,6b,9a,10,10a,10b. 11,12-dodecahydro-2H-naphtho[2′,1′:4.5]indeno[1,2-d][1,3]dioxol-2-one] | 3.6 µg | 10.49 | 8.06
